The supplement of paper PMC10307832

How the values were obtained:
Assay in all cases: relative viability (nuclei count vs DMSO), 5 days (fraction); higher = more cells survive
[1] = compound: O=C(O)c1ccc2c(c1)nc(Nc1cccc(Cl)c1)c1ccncc12 [Silmitasertib] + CC(C)C[C@H](NC(=O)[C@H](Cc1ccccc1)NC(=O)c1cnccn1)B(O)O [Bortezomib] (partner 0.002 µM)
In short: (§1)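 A single step with final 0.05% Triton X-100, 1% formaldehyde and 1 ug/ml Hoechst fixed the cells and stained nuclei 5 days after treatment. Lung cancer cell lines in 1536-well plates had been treated by pin tool the day after seeding with one drug alone or a fixed anchor-drug dose plus five library-drug doses (not always all listed) in √10 steps, and nuclei were counted on 4× images. Relative viability is the ratio of nuclei in treated wells to nuclei in vehicle wells, taken as the median of duplicate plates.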

[2] = compound: O=C(O)c1ccc2c(c1)nc(Nc1cccc(Cl)c1)c1ccncc12 [Silmitasertib] + CC1(C)CCC(c2ccc(Cl)cc2)=C(CN2CCN(c3ccc(C(=O)NS(=O)(=O)c4ccc(N[C@H](CCN5CCOCC5)CSc5ccccc5)c(S(=O)(=O)C(F)(F)F)c4)cc3)CC2)C1 [Navitoclax] (partner 0.5 µM)
In short: as §1

Silmitasertib + OSI-027 = compound: O=C(O)c1ccc2c(c1)nc(Nc1cccc(Cl)c1)c1ccncc12 [Silmitasertib] + COc1cccc2cc(-c3nc([C@H]4CC[C@H](C(=O)O)CC4)n4ncnc(N)c34)[nH]c12 [OSI-027] (partner 0.5 µM)
In short: as §1

[3] = compound: O=C(O)c1ccc2c(c1)nc(Nc1cccc(Cl)c1)c1ccncc12 [Silmitasertib] + CS(=O)(=O)CCNCc1ccc(-c2ccc3ncnc(Nc4ccc(OCc5cccc(F)c5)c(Cl)c4)c3c2)o1 [Lapatinib] (partner 2 µM)
In short: as §1

[4] = compound: O=C(O)c1ccc2c(c1)nc(Nc1cccc(Cl)c1)c1ccncc12 [Silmitasertib] + CS(=O)(=O)N1CCN(Cc2cc3nc(-c4cccc5[nH]ncc45)nc(N4CCOCC4)c3s2)CC1 [Pictilisib] (partner 1 µM)
In short: as §1

Cell Line	relative viability ([1]; first compound 0.04 µM)	relative viability ([1]; first compound 0.4 µM)	relative viability ([1]; first compound 1.265 µM)	relative viability ([1]; first compound 4 µM)	relative viability ([2]; first compound 0.04 µM)	relative viability ([2]; first compound 0.4 µM)	relative viability ([2]; first compound 1.265 µM)	relative viability ([2]; first compound 4 µM)	relative viability (Silmitasertib + OSI-027; first compound 0.04 µM)	relative viability (Silmitasertib + OSI-027; first compound 0.4 µM)	relative viability (Silmitasertib + OSI-027; first compound 1.265 µM)	relative viability (Silmitasertib + OSI-027; first compound 4 µM)	relative viability ([3]; first compound 0.04 µM)	relative viability ([3]; first compound 0.4 µM)	relative viability ([3]; first compound 1.265 µM)	relative viability ([3]; first compound 4 µM)	relative viability ([4]; first compound 0.04 µM)	relative viability ([4]; first compound 0.4 µM)	relative viability ([4]; first compound 1.265 µM)	relative viability ([4]; first compound 4 µM)
NCI-H647	1.12	0.866	0.705	0.343	1.05	0.826	0.85	0.57	0.775	0.578	0.503	0.44	1.37	0.801	0.716	0.328	0.546	0.462	0.33	0.153
NCI-H2009	1.14	0.545	0.944	0.463	1.15	1.09	1.19	0.788	0.784	0.506	0.424	0.262	1.04	0.636	0.85	0.341	1.07	0.701	0.427	0.244
EPLC-272H	0.906	–	0.573	0.491	1.09	–	0.747	0.807	0.301	–	0.24	0.178	1.09	–	0.666	0.122	0.424	–	0.268	0.169
NCI-H520	0.622	0.515	0.389	0.422	1.11	0.917	1.04	0.863	0.197	0.239	0.252	0.252	0.93	0.902	0.773	0.438	0.263	0.298	0.258	0.224
NCI-H2405	0.936	0.792	0.874	0.904	1.26	0.68	0.596	0.706	0.646	0.518	0.498	0.567	1.51	0.903	0.844	0.562	0.586	0.388	0.379	0.28
NCI-H2085	1.19	0.614	0.873	0.889	1.15	0.942	0.933	0.874	0.914	–	0.704	0.466	0.916	0.509	0.674	0.507	0.474	0.547	0.453	0.457
NCI-H322M	1.25	0.881	0.947	0.804	1.23	0.932	0.799	0.479	0.619	0.467	0.383	0.372	0.668	0.549	0.42	0.387	0.503	0.503	0.381	0.365
NCI-H1944	–	–	–	–	0.976	0.732	1.06	1.27	0.409	0.382	0.424	0.295	0.826	0.807	0.822	0.816	0.361	0.442	0.364	0.381
LC-2-ad	1.13	0.858	1	0.605	0.462	0.383	0.392	0.261	0.982	0.709	0.721	0.483	1.06	0.855	0.951	0.233	0.448	0.443	0.525	0.332
NCI-H358	–	–	–	–	–	–	–	–	1.09	0.349	0.519	0.376	0.448	0.57	0.507	0.35	0.375	0.324	0.322	0.288
NCI-H2170	–	–	–	–	0.614	0.339	0.446	0.433	0.798	0.535	0.619	0.54	0.292	0.258	0.276	0.274	0.32	0.259	0.31	0.269
A-427	1.1	–	1.24	0.703	1.05	–	0.943	0.566	0.617	–	0.425	0.192	1.06	–	1.24	0.573	0.858	–	0.521	0.238
NCI-H1666	1.01	0.702	0.5	0.468	1.02	0.853	0.663	0.492	0.812	0.732	0.652	0.615	0.734	0.564	0.452	0.319	0.465	0.499	0.321	0.307
LOU-NH91	0.509	0.46	0.394	0.452	0.852	0.596	0.549	0.464	0.709	0.665	0.629	0.543	0.747	0.649	0.548	0.516	0.574	0.507	0.464	0.388
